experiment: Degree of premature breaking of hair, tensile test; conditions: parameter R; natural African hair immersed three days at 40° C. in composition of 5% by weight compound and 95% water, no final rinsing; hairs 30 mm, pulled at 10 mm/minute; untreated control 0.27
Protocol: The hair used for the following tests was regulated beforehand in a glove box at 25° C. and 45% relative humidity for about 24 hours. This was natural curly African hair.
The four abovementioned compounds were respectively formulated in the form of a composition comprising 5% by weight of the compound under consideration and 95% by weight of water relative to the total weight of the composition.
Four batches of natural African hair were treated, respectively, with each of the four compositions according to the following protocol: the hair is immersed for three days at 40° C. in the composition under consideration, without final rinsing, and its degree of premature breaking is then assessed by comparison with that of a batch of untreated natural control hair.
The degree of premature breaking of the hair is characterized by the following parameter R:
R=1−(number of hairs showing breakage under tension in the hardening zone/N),
N being the total number of hairs tested.
The corresponding mechanical tests are performed using a Zwicko tensile testing machine on hairs 30 mm long. The hairs were pulled at a speed of 10 mm/minute.

| SMILES | Degree of premature breaking |
| --- | --- |
| CC(O)C[C@@H]1OC[C@@H](O)[C@H](O)[C@H]1O (stereo partly drawn) [Compound 1, C-β-D-xylopyranoside-2-hydroxypropane] | 0.17 |
| CC(=O)C[C@@H]1OC[C@@H](O)[C@H](O)[C@H]1O [Compound 2, C-β-D-Xylopyranoside-n-propan-2-one] | 0.20 |
| CC(=O)C[C@@H]1O[C@H](CO)[C@@H](O[C@@H]2O[C@H](CO)[C@H](O)[C@H](O)[C@H]2O)[C@H](O)[C@H]1O [Compound 3, C-β-D-Lactopyranoside-n-propan-2-one] | 0.13 |
| CC(=O)C[C@@H]1O[C@H](CO)[C@@H](O)[C@H](O)[C@H]1O [Compound 4, C-β-D-glucopyranoside-n-propan-2-one] | 0.23 |

Source: patent publication US20080153760A1, “Haircare Use Of C-Glycoside Derivatives” (L'OREAL, priority 2005, published 2008)
